Experimental findings from patent US8969516B2, “Method of hydrolysis of peptide bond” (priority 2006, dated 2015) are described below.

Data set [1] in a line: Quantitative kinetic studies of Ni^2+ dependent peptide hydrolysis by HPLC. The format is physicochemical. The conditions noted are these: 1 mM peptide, 1 mM Ni^2+, 45° C., pH 8.2 (20 mM Tris). The method, then: The title octapeptides were synthesised according to a typical Fmoc protocol (Fields, Meth. Enzymol. Vol. 289). The list of variable BXHZ sequences is given in Table 2, along with 1st order rate constants determined at 45° C., pH 8.2 (20 mM Tris buffer) for 1 mM peptide and Ni^2+ concentrations. […] The substrate and product peaks were identified by MALDI-TOF MS.

Data set [2] can be described thus: MALDI-TOF screening of Ni^2+ dependent hydrolysis in a combinatorial peptide library. The format is physicochemical. The conditions noted are these: Ni^2+ 2 mM, pH 8.2, 10 mM Tris, score=24/tm. Summed up: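 Ni2+ 2 mM, peptide pool 1 mM (total), 10 mM Tris pH 8.2; 37 °C and 45 °C in parallel; MS aliquots at 2/4/6/8 h; products detected visually. X: all proteinogenic residues except Asp, Glu, Cys; Z: all except Cys.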

A short description of data set [3]: Dependence of rate of hydrolysis of the Ala-Ser bond on buffer and Ni^2+ excess (HPLC). The format is physicochemical. The following applies: pH 8.2, 1 mM peptide; for κ ± S.D., 1st order rate constant for the hydrolysis: 25° C., 1.2 mM Ni^2+. The method, then: The title peptide was synthesised according to a standard Fmoc protocol (Fields, Meth. Enzymol. Vol. 289). The pH dependence of the formation of the active complex of the title peptide, represented by the structure (III) in Scheme 2, was determined by potentiometry at 25° C., as described in Krezel et al., Chem. Res. Toxicol. 2003, 16, 855-864. The rate of peptide hydrolysis was studied by HPLC (as in Example 2) in a series of mixed phosphate/Tris/Borax buffers (40/20/20 mM) at 25° C. and pH between 6 and 12.5, with peptide and Ni^2+ concentrations equal to 1 mM. As presented in FIG. 1, the rate of hydrolysis matched the formation of the active complex quantitatively.
The dependence of the rate of hydrolysis on the buffer used was studied at 25° C. separately in 20 mM Tris, Hepes and sodium phosphate buffers, all at pH 8.2, for 1 mM peptide and 1.2 mM Ni^2+.
The dependence of the rate of hydrolysis of the title peptide on the molar ratio of Ni^2+ to peptide was studied at 25° C. and pH 8.2, for 1 mM peptide. The reaction rate constant k was 4.3±0.2 s^−1×10^−5 for the Ni^2+ to peptide molar ratio of 1.2 and 4.72±0.01 s^−1×10^−5 for the Ni^2+ to peptide molar ratio of 5.

A further data set deals with proteinase. The experiment in a line: Activity of SPI2 released from the recombinant polypeptide (Chavira et al.). The format is biochemical. The following applies: after Ni^2+ cleavage on Ni-NTA-agarose, 100 mM Hepes pH 8.2, 50° C., 19 hours. The method, then:
The recombinant polypeptide from Example 4 (100 μl of a 140 μM solution) was loaded on 200 μl of Ni-NTA-agarose (Invitrogen), according to the manufacturer's instruction, and incubated in 100 mM Hepes buffer, pH 8.2 with 5 mM Ni^2+ at 50° C. without shaking. The incubation buffer (500 μl) was removed after 19 hours. Then the unreacted polypeptide and the cleaved off SRHW-AP-HHHHHH domain were washed from the column with two 400 μl portions of 200 mM imidazole, pH 7.4. The samples were analyzed by HPLC under conditions given in Example 4. FIG. 4 presented chromatograms of the control recombinant polypeptide, incubation buffer and both wash fractions. Masses of polypeptides were measured by ESI-MS. The yield of purified SPI2 was 88%. SPI2 obtained from this procedure was fully active, as determined according to […] et al., Anal. Biochem. 1984, 136, 446-450.

With Ac-GASRHWKFL-NH2 [-SRHW-], in data set [1], the “k ± S.D., 1st order rate constant for the hydrolysis” value (“k ± S.D., 1st order rate constant” for short) stood at 28.8 ± 0.8 s^−1 · 10^−5.

Take “Ac-GASRHWKFL-NH2 [SRHW, CH3CO-Gly-Ala-Ser-Arg-His-Trp-Lys-Phe-Leu-NH2]”: the “hydrolysis score from MALDI-TOF screening” value in data set [2] (CH3CO-Gly-Ala-Ser-X-His-Z-Lys-Phe-Leu-NH2 library, 37° C.) is listed as 12 (a score of 12, if it was seen to be partially hydrolysed at 2 hours); in data set [2] (CH3CO-Gly-Ala-Ser-X-His-Z-Lys-Phe-Leu-NH2 library, 45° C.), 12 (a score of 12, if it was seen to be partially hydrolysed at 2 hours). Besides, the results for the “κ ± S.D., 1st order rate constant for the hydrolysis” value in data set [3] (20 mM Hepes), in data set [3] (20 mM Tris) and in data set [3] (20 mM phosphate) were 5.9 ± 0.8 s^−1 × 10^−5, 4.8 ± 0.5 s^−1 × 10^−5 and 0.74 ± 0.09 s^−1 × 10^−5, respectively. Besides, the “reaction rate constant k” value stood at 4.3±0.2 s^−1×10^−5 in data set [3] (Ni^2+ to peptide molar ratio of 1.2, 25° C.) and 4.72±0.01 s^−1×10^−5 in data set [3] (Ni^2+ to peptide molar ratio of 5, 25° C.).

With Ac-GASWHIKFL-NH2 [-SWHI-], the “k ± S.D., 1st order rate constant” value in data set [1] was 3 ± 1 s^−1 · 10^−5.

Turning to Ac-GATHHKKFL-NH2 [-THHK-], the “k ± S.D., 1st order rate constant” value in data set [1] worked out at 1.01 ± 0.09 s^−1 · 10^−5.

Regarding Ac-GATYHYKFL-NH2 [TYHY], the “hydrolysis score from MALDI-TOF screening” value in data set [2] (CH3CO-Gly-Ala-Thr-X-His-Z-Lys-Phe-Leu-NH2 library, 37° C.) is recorded as 0 (a score of 0 if no trace of the product of hydrolysis was seen after 8 hours of incubation); in data set [2] (CH3CO-Gly-Ala-Thr-X-His-Z-Lys-Phe-Leu-NH2 library, 45° C.), 0 (a score of 0 if no trace of the product of hydrolysis was seen after 8 hours of incubation).

On to “SPI2: single domain Kazal type proteinase inhibitor, released from (SPI2)-SRHW-AP-HHHHHH recombinant polypeptide”, for which the “activity of SPI2 obtained from cleavage on solid support” value in the data set on proteinase is listed as “fully active”.
